These results are taken from PubChem BioAssay (NCI).

Some test systems named below: NCI-H23 lung; BT-549 breast; HCT-15 colon; MCF7 breast; OVCAR-3 ovarian; SW-620 colon; LOX IMVI melanoma.
Assay in all cases: DTP human tumour cell line panel, 48 h

The GI50 is the concentration giving 50% growth inhibition. Usually TGI stands for the concentration at which net growth stops. Low readings indicate more potent growth arrest, high ones less potent growth arrest.

Each structure is given as a SMILES string. Several values for one entry are separate records, joined by “and”; a condition that tells them apart may be missing. Identical values can stand only once.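 Assay format: 96-well plates, 48-hour exposure. Here, GI50 denotes the concentration required for 50% inhibition of growth. TGI: concentration producing complete growth inhibition.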

Regarding `COc1cccc(/C=C/C(=O)c2ccc(Cl)cc2Cl)c1`, the GI50 with NCI-H23 lung was 9.72 µM; in the assay on BT-549 breast, 11 µM; in the assay on HCT-15 colon, 13.9 µM; in the assay with MCF7 breast, 7.84 µM; in the assay on OVCAR-3 ovarian it was 10.9 µM; in the assay on SW-620 colon, 1.82 µM. For the same compound, in the assay on LOX IMVI melanoma, the GI50 is 15.3 µM. Also, the TGI with NCI-H23 lung was 28.7 µM; with BT-549 breast it was 22.4 µM; in the assay with HCT-15 colon it was greater than 50 µM; in the assay with MCF7 breast, 47.1 µM; with OVCAR-3 ovarian it was 25.2 µM; in the assay with SW-620 colon, 7.62 µM. In the assay on LOX IMVI melanoma, this compound registered a TGI greater than 50 µM.

Consider `COc1ccc(/C=N\Nc2ccc([N+](=O)[O-])cn2)cc1OC`, for which the GI50 with NCI-H23 lung was 53.2 µM; with BT-549 breast, greater than 100 µM; with HCT-15 colon, greater than 100 µM; with SW-620 colon, greater than 100 µM; in the assay with LOX IMVI melanoma it was greater than 100 µM. The TGI in the assay on NCI-H23 lung, with BT-549 breast, in the assay with HCT-15 colon, in the assay with SW-620 colon and in the assay on LOX IMVI melanoma was greater than 100 µM throughout.

Consider `Cc1cccc(C)c1NC(=O)Nc1ccc(S(N)(=O)=O)cc1`, for which the TGI in the assay on NCI-H23 lung, with BT-549 breast, in the assay with HCT-15 colon, with MCF7 breast, in the assay with OVCAR-3 ovarian and in the assay on SW-620 colon was greater than 100 µM each time. The compound further registered a TGI in the assay with LOX IMVI melanoma greater than 100 µM.

With `COc1ccc2c(c1)CC[C@H](O)/C2=C/c1cc(OC)c(OC)c(OC)c1`, the GI50 was 0.162 µM in the assay with NCI-H23 lung; 0.147 µM with BT-549 breast; 0.0567 µM in the assay with HCT-15 colon; 0.0379 µM in the assay with MCF7 breast; 0.0757 µM in the assay on OVCAR-3 ovarian; 0.0739 µM in the assay with SW-620 colon. The GI50 with LOX IMVI melanoma is 0.207 µM. The TGI is greater than 100 µM in the assay with NCI-H23 lung; 17.6 µM in the assay on BT-549 breast; greater than 100 µM with HCT-15 colon; greater than 100 µM in the assay on MCF7 breast; greater than 100 µM with OVCAR-3 ovarian; greater than 100 µM in the assay with SW-620 colon. The same compound displayed a TGI with LOX IMVI melanoma greater than 100 µM.

`N#CC1=C(N)NC(N2CCOCC2)=NC12Nc1ccccc1N2`: the GI50 was 21.9 µM in the assay on NCI-H23 lung; 32.6 µM with BT-549 breast; 35.2 µM in the assay with HCT-15 colon; 20.2 µM in the assay on OVCAR-3 ovarian; 26.7 µM in the assay on SW-620 colon; 23.5 µM with LOX IMVI melanoma. Moreover, the TGI was greater than 100 µM with NCI-H23 lung; greater than 100 µM with BT-549 breast; greater than 100 µM in the assay with HCT-15 colon; 70.7 µM in the assay on OVCAR-3 ovarian; greater than 100 µM in the assay on SW-620 colon; 62.5 µM in the assay on LOX IMVI melanoma.

With `Cc1cn2c(/C=N/N=C(N)N)c(-c3cccs3)nc2s1`, the GI50 with NCI-H23 lung is 11.7 µM; in the assay with BT-549 breast, 8.07 µM; with HCT-15 colon, 4.3 µM; in the assay with MCF7 breast, 2.79 µM; with OVCAR-3 ovarian, 1.91 µM; in the assay on SW-620 colon, 1.71 µM. The TGI in the assay on NCI-H23 lung was found to be 24 µM; with BT-549 breast, 22.8 µM; with HCT-15 colon it was 18.4 µM; with MCF7 breast, 13.7 µM; in the assay on OVCAR-3 ovarian, 5.5 µM; in the assay on SW-620 colon, 4.02 µM.

In the case of `COC(=O)c1cc(O)c2c(c1C(=O)OC)C[C@H]1[C@@H]3CC=C4C[C@@H](O)CC[C@]4(C)[C@H]3CC[C@]21C`, the GI50 in the assay on NCI-H23 lung is 3.5 µM; with BT-549 breast, 2.29 µM; with HCT-15 colon, 3.03 µM; in the assay with MCF7 breast, 3.15 µM; in the assay on OVCAR-3 ovarian, 2.19 µM; in the assay on SW-620 colon, 3.48 µM. Further, the TGI in the assay with NCI-H23 lung turned out to be 23.5 µM; in the assay with BT-549 breast, 6.98 µM; in the assay on HCT-15 colon, 35.1 µM; in the assay with MCF7 breast, 12.8 µM; in the assay with OVCAR-3 ovarian it was 4.94 µM; in the assay with SW-620 colon it was 17.6 µM.

Turning to `CCCCCCCCCCCCCCCCCC(=O)OCC(COC(=O)CCCN)OC(=O)CCCN` (stereo not given), the TGI in the assay on NCI-H23 lung stood at 31.9 µM; in the assay with HCT-15 colon it was 52.3 µM; in the assay with MCF7 breast it was 47.1 µM; with OVCAR-3 ovarian, 35.3 µM; in the assay with SW-620 colon, 38.2 µM; in the assay with LOX IMVI melanoma, 42.5 µM.

Turning to `CO[C@H](C(=O)[C@@H](O)[C@@H](C)O)[C@@H]1Cc2cc3cc(OC4CC(OC5CC(O)C(O)C(C)O5)C(O)C(C)O4)c(C)c(O)c3c(O)c2C(=O)[C@H]1OC1CC(OC2CC(OC3CC(C)(O)C(O)C(C)O3)C(O)C(C)O2)C(O)C(C)O1` (stereo not given in full), the GI50 with NCI-H23 lung is 0.0235 µg/mL and 0.0192 µg/mL; with HCT-15 colon, 0.286 µg/mL and 0.843 µg/mL; in the assay with MCF7 breast, 0.0143 µg/mL and 0.0152 µg/mL; in the assay with OVCAR-3 ovarian, 0.0235 µg/mL and 0.0222 µg/mL; in the assay with SW-620 colon, 0.0264 µg/mL and 0.0232 µg/mL; with LOX IMVI melanoma it was 0.0262 µg/mL.

As to `O=c1c(Cl)c(Cl)c(=O)c2sc3cc(Cl)ccc3[nH]c1=2`, the TGI with NCI-H23 lung is greater than 100 µM; in the assay on HCT-15 colon it was greater than 100 µM; with MCF7 breast, greater than 100 µM; in the assay with OVCAR-3 ovarian, 30.7 µM; in the assay on SW-620 colon it was 52.1 µM.

As to `Cn1c2ccc(Br)cc2c2c3c(c4c5ccccc5[nH]c4c21)C(=O)N(O)C3=O`, the GI50 with NCI-H23 lung is 0.0872 µM; in the assay with BT-549 breast, 0.149 µM; in the assay with MCF7 breast it was 0.04 µM; in the assay on OVCAR-3 ovarian, 0.191 µM; in the assay with SW-620 colon it was 0.0787 µM; in the assay with LOX IMVI melanoma it was 0.0537 µM. In addition, the TGI in the assay with NCI-H23 lung was 0.398 µM; in the assay on BT-549 breast, 0.45 µM; with MCF7 breast it was 0.309 µM; in the assay on OVCAR-3 ovarian, 0.452 µM; with SW-620 colon, 0.394 µM; in the assay with LOX IMVI melanoma it was 0.193 µM.

As for `C=C1CCC2C(C)(COC(=O)CC)C(OC(=O)CC)CCC2(C)C1C/C=C1/C(=O)OCC1OC(=O)CC` (stereo not given), the GI50 is 3.39 µM in the assay with NCI-H23 lung; 1.96 µM in the assay on HCT-15 colon; 1.77 µM in the assay with OVCAR-3 ovarian; 1.17 µM in the assay with SW-620 colon; 1.51 µM with LOX IMVI melanoma. Besides, the TGI in the assay on NCI-H23 lung worked out at 13.2 µM; in the assay with HCT-15 colon, 6 µM; with OVCAR-3 ovarian, 3.15 µM; in the assay on SW-620 colon, 2.44 µM; in the assay with LOX IMVI melanoma it was 3.01 µM.

In the case of `Cc1cc(N2CCSCC2)nc(NC2CCCC(Nc3ccnc4cc(Cl)ccc34)C2)n1` (stereo not given), the GI50 is 2.55 µM in the assay with NCI-H23 lung; 1.71 µM with BT-549 breast; 1.24 µM in the assay with HCT-15 colon; 1.84 µM in the assay on OVCAR-3 ovarian; 1.83 µM with SW-620 colon. For the same compound, the TGI in the assay on NCI-H23 lung is 7.99 µM; in the assay with BT-549 breast it was 3.79 µM; in the assay on HCT-15 colon, 2.77 µM; in the assay with OVCAR-3 ovarian, 3.72 µM; in the assay with SW-620 colon it was 3.77 µM.

With `N#CCN/C=C\C(=O)c1ccc(Cl)cc1`, the GI50 in the assay with NCI-H23 lung is 32.9 µM; in the assay with MCF7 breast, 32.5 µM; in the assay on OVCAR-3 ovarian, 17.7 µM; in the assay with SW-620 colon it was 37.8 µM; with LOX IMVI melanoma, 31.5 µM. Besides, the TGI in the assay with NCI-H23 lung was 86.2 µM; with MCF7 breast, greater than 100 µM; in the assay with OVCAR-3 ovarian, 59.1 µM; with SW-620 colon, greater than 100 µM; in the assay with LOX IMVI melanoma, greater than 100 µM.
